{"source": "patent US20200109362A1", "about": "(priority 2016, published 2020)", "format_in_all_cases": "cell-based, human", "key": {"[1]": {"system": "TK6 cells"}, "[2]": {"system": "TK6+MGMT cells", "test": "ToxChip (μCC) microcolony toxicity assay, TK6+MGMT cells", "conditions": "TK6+MGMT vs TK6"}, "[3]": {"system": "MCL-5 cells", "test": "ToxChip (μCC) microcolony toxicity assay, MCL-5 cells"}}, "note": "“Also recorded” adds a separate entry of the source."}
{"compound": "O=NN(CCCl)C(=O)NCCCl", "note": "[BCNU, N,N′-bis (2-chloroethyl)-N-nitrosourea]", "values": [{"measurement": "PF value as % of the control PF", "setting": "[1]; TK6 cells, 10 μM BCNU", "value": 96, "unit": "%"}, {"measurement": "PFF (total PF fluorescence) as % of the control PFF", "setting": "[1]; TK6 cells, 10 μM BCNU", "value": 53, "unit": "%"}, {"measurement": "microcolony growth (F/M distribution) after treatment", "setting": "[1]; TK6 cells, BCNU 1 hour, up to 72 hours growth", "value": "less able to form larger colonies; also recorded: inhibits growth of colonies"}, {"measurement": "difference in survival between TK6 and TK6+MGMT when challenged", "setting": "[2]; PFF method", "value": "approximately 1 log"}, {"measurement": "difference in sensitivity between TK6 and TK6+MGMT", "setting": "[2]; μCC, treatment 1 hour at 37° C.", "value": "significant difference in sensitivity; also recorded: MGMT significantly rescues TK6 cells"}]}
{"compound": "CC(=O)N1CCN(c2ccc(OCC3COC(Cn4ccnc4)(c4ccc(Cl)cc4Cl)O3)cc2)CC1", "note": "(stereo not drawn) [KET, ketoconazole]", "values": [{"measurement": "rescue of MCL-5 cells from AFB1 toxicity by co-treatment", "setting": "[3]", "value": "significant rescue; also recorded: significantly rescues"}]}
{"compound": "aflatoxin B1 [AFB1]", "values": [{"measurement": "difference in sensitivity between TK6 and MCL-5 cells", "setting": "[3]", "value": "more than 2 log"}, {"measurement": "sensitivity of MCL-5 cells compared with TK6 cells", "setting": "[3]", "value": "significantly more sensitive"}, {"measurement": "toxicity to TK6 cells", "setting": "[1]", "value": "relatively unaffected"}]}
